Source: patent US10611750B2, “Tetrahydroquinoline compositions as bet bromodomain inhibitors” (FORMA Therapeutics, Inc., priority 2013, dated 2020)
Several values for one entry are separate records, joined by “and”; a condition that tells them apart may be missing. Identical values can stand only once.

What was measured:
[1] = target: T1, BRD4 Bromodomain 2 (BRD4 BD2) (Homo sapiens, UniProt O60885); assay: AlphaScreen binding assay, BRD4 BD2; settings: His-tagged BRD4 BD2 100 nM, biotinylated H4 (1-21) K5/8/12/16 tetra-acetylated peptide 100 nM, compounds listed under IC50 range headings
T1 construct: 333-460 were cloned, expressed, and purified to homogeneity
In short: (§1)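 An AlphaScreen competition format was used with His-BRD4 BD1 or BD2 and biotin-H4 K5/8/12/16-acetyl peptide, each at matched final levels of 50 nM (BD1) or 100 nM (BD2). Incubation in HEPES/NaCl buffer with 0.1% BSA and 0.01% Triton X-100 ran ≥1 h before IC50 determination.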

[2] = target: T2, BRD4 Bromodomain 1 (BRD4 BD1) (Homo sapiens, UniProt O60885); assay: AlphaScreen binding assay, BRD4 BD1; settings: His-tagged BRD4 BD1 50 nM, biotinylated H4 (1-21) K5/8/12/16 tetra-acetylated peptide 50 nM, compounds listed under IC50 range headings
T2 construct: 44-168 and BRD4 BD2
In short: as §1

[3] = test system: acute myelocytic leukemia (AML) cell line MV4-11; assay: Oncology cell growth assay (3-day proliferation, CellTiter-Glo); type: cell-based; settings: Homo sapiens, MV4-11, 72 h, MV4-11 cells, 3000 cells/well, compounds listed under IC50 range headings, read-out: MV411 IC50 (gIC50, inhibition of proliferation)
In short: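 A 3-day proliferation test used MV4-11 cells seeded at 3000 per well with eight compound concentrations (10 μM top, 3-fold dilution) at 37° C in 5% CO2. CellTiter-Glo luminescence defined viable cell signal. A four-parameter logistic curve against DMSO and background wells gave the gIC50.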

SMILES	IC50 [1] [nM]	IC50 [2]	IC50 [3] [nM]
CC(=O)N1c2ccc(-c3cnn(C4CC4)c3)c(Oc3ccc(Cl)cc3)c2CC[C@@H]1C [I-226, (S)-1-(5-(4-chlorophenoxy)-6-(1-cyclopropyl-1H-pyrazol-4-yl)-2-methyl-3,4-dihydroquinolin-1(2H)-yl)ethanone]	50 to 500	100 to 1000 nM	< 500
COC(=O)N1c2ccc(-c3cnn(C4CCN(C)C4)c3)c(OC3CCC3)c2CC[C@@H]1C (stereo partly drawn) [I-247, (2S)-methyl 5-cyclobutoxy-2-methyl-6-(1-(1-methylpyrrolidin-3-yl)-1H-pyrazol-4-yl)-3,4-dihydroquinoline-1 (211)-carboxylate]	50 to 500	100 to 1000 nM	< 500
CCN1CC(Oc2c(-c3cnn(C4CC4)c3)ccc3c2CC[C@H](C)N3C(=O)OC)C1 [I-251, (S)-methyl 6-(1-cyclopropyl-1H-pyrazol-4-yl)-5-(1-ethylazetidin-3-yloxy)-2-methyl-3,4-dihydroquinoline-1(2H)-carboxylate]	50 to 500	1000 to 10000 nM	> 1000
COC(=O)N1c2ccc(-c3cnn(C4CC4)c3)c(OC3CN(C(C)C)C3)c2CC[C@@H]1C [I-252, (S)-methyl 6-(1-cyclopropyl-1H-pyrazol-4-yl)-5-(1-isopropylazetidin-3-yloxy)-2-methyl-3,4-dihydroquinoline-1(2H)-carboxylate]	≥ 500	1000 to 10000 nM	> 1000
CCN1CC(Oc2c(-c3cnn(C4CC4)c3)ccc3c2CC[C@H](C)N3C(C)=O)C1 [I-253, (S)-1-(6-(1-cyclopropyl-1H-pyrazol-4-yl)-5-(1-ethylazetidin-3-yloxy)-2-methyl-3,4-dihydroquinolin-1(2H)-yl)ethanone]	≥ 500	≥ 10000 nM	> 1000
CC(=O)N1c2ccc(-c3cnn(C4CC4)c3)c(OC3CN(C(C)C)C3)c2CC[C@@H]1C [I-254, (S)-1-(6-(1-cyclopropyl-1H-pyrazol-4-yl)-5-(1-isopropylazetidin-3-yloxy)-2-methyl-3,4-dihydroquinolin-1(2H)-yl)ethanone]	50 to 500	1000 to 10000 nM	> 1000
CC(=O)N1c2ccc(-c3cnn(C4CCNCC4)c3)c(Oc3ccccc3F)c2CC[C@@H]1C [I-258, (S)-1-(5-(2-fluorophenoxy)-2-methyl-6-(1-(piperidin-4-yl)-1H-pyrazol-4-yl)-3,4-dihydroquinolin-1 (2H)-yl)ethanone]	< 50	100 to 1000 nM	< 500
COC(=O)N1c2ccc(-c3cnn(C4CCNCC4)c3)c(Oc3ccccc3F)c2CC[C@@H]1C [I-259, (S)-methyl 5-(2-fluorophenoxy)-2-methyl-6-(1-(piperidin-4-yl)-1H-pyrazol-4-yl)-3,4-dihydroquinoline-1(2H)-carboxylate]	< 50	100 to 1000 nM	< 500
COC(=O)N1c2ccc(-c3cnn(C4CCNCC4)c3)c(Oc3ccc(F)cc3F)c2CC[C@@H]1C [I-263, (S)-methyl 5-(2,4-difluorophenoxy)-2-methyl-6-(1-(piperidin-4-yl)-1H-pyrazol-4-yl)-3,4-dihydroquinoline-1(2H)-carboxylate]	< 50	100 to 1000 nM	< 500
C[C@H]1CCc2c(ccc(-c3cnn(C4CNC4)c3)c2Oc2cccc(F)c2F)N1C(=O)C1CC1 [I-268, (S)-(6-(1-(azetidin-3-yl)-1H-pyrazol-4-yl)-5-(2,3-difluorophenoxy)-2-methyl-3,4-dihydroquinolin-1(2H)-yl)(cyclopropyl)methanone]	< 50	100 to 1000 nM	< 500
COC(=O)N1c2ccc(-c3cnn(C4CNC4)c3)c(Oc3cccc(F)c3F)c2CC[C@@H]1C [I-270, (S)-methyl 6-(1-(azetidin-3-yl)-1H-pyrazol-4-yl)-5-(2,3-difluorophenoxy)-2-methyl-3,4-dihydroquinoline-1(2H)-carboxylate]	< 50	100 to 1000 nM	< 500

Continued, values first:

IC50 [1] [nM]	IC50 [2]	IC50 [3] [nM]	SMILES
< 50	1000 to 10000 nM	< 500	C[C@H]1CCc2c(ccc(-c3ccn[nH]3)c2Oc2ccccc2)N1C(=O)C1CC1 [I-218, (S)-cyclopropyl(2-methyl-5-phenoxy-6-(1H-pyrazol-5-yl)-3,4-dihydroquinolin-1(2H)-yl)methanone]
< 50	100 to 1000 nM	< 500	C[C@H]1CCc2c(ccc(-c3cnn(C)c3)c2Oc2ccccc2)N1C(=O)C1CC1 [I-224, (S)-cyclopropyl(2-methyl-6-(1-methyl-1H-pyrazol-4-yl)-5-phenoxy-3,4-dihydroquinolin-1(2H)-yl)methanone]
< 50	100 to 1000 nM	< 500	CC(=O)N1c2ccc(-c3cnn(C4CC4)c3)c(Oc3ccc(F)cc3)c2CC[C@@H]1C [I-225, (S)-1-(6-(1-cyclopropyl-1H-pyrazol-4-yl)-5-(4-fluorophenoxy)-2-methyl-3,4-dihydroquinolin-1(2H)-yl)ethanone]
< 50	100 to 1000 nM and ≥ 10000 nM	< 500	COC(=O)N1c2ccc(-c3cnn(C4CCN(C)CC4)c3)c(Oc3ccc(Cl)cc3C#N)c2CC[C@@H]1C [I-245, methyl (S)-5-(4-chloro-2-cyanophenoxy)-2-methyl-6-(1-(1-methylpiperidin-4-yl)-1H-pyrazol-4-yl)-3,4-dihydroquinoline-1(2H)-carboxylate]
< 50	100 to 1000 nM	< 500	CC(=O)N1c2ccc(-c3cnn(C4CCN(C)CC4)c3)c(Oc3ccccc3C#N)c2CC[C@@H]1C [I-246, (S)-2-((1-acetyl-2-methyl-6-(1-(1-methylpiperidin-4-yl)-1H-pyrazol-4-yl)-1,2,3,4-tetrahydroquinolin-5-yl)oxy)benzonitrile]
< 50	100 to 1000 nM	< 500	COC(=O)N1c2ccc(-c3cnn(C4CCN(C)C4)c3)c(Oc3ccc(F)cc3)c2CC[C@@H]1C (stereo partly drawn) [I-249, (2S)-methyl 5-(4-fluorophenoxy)-2-methyl-6-(1-(1-methylpyrrolidin-3-yl)-1H-pyrazol-4-yl)-3,4-dihydroquinoline-1(2H)-carboxylate]
< 50	100 to 1000 nM	< 500	CC(=O)N1c2ccc(-c3cnn(C4CC4)c3)c(Oc3cc(C)ccn3)c2CC[C@@H]1C [I-255, 1-[(2S)-6-(1-cyclopropyl-1H-pyrazol-4-yl)-2-methyl-5-[(4-methylpyridin-2-yl)oxy]-1,2,3,4-tetrahydroquinolin-1-yl]ethan-1-one]
< 50	100 to 1000 nM	< 500	CC(=O)N1c2ccc(-c3cnn(C4CC4)c3)c(Oc3cccc(C)n3)c2CC[C@@H]1C [I-256, (S)-1-(6-(1-cyclopropyl-1H-pyrazol-4-yl)-2-methyl-5-(6-methylpyridin-2-yloxy)-3,4-dihydroquinolin-1 (2H)-yl)ethanone]
< 50	1000 to 10000 nM	< 500	CC(=O)N1c2ccc(-c3cnn(C4CC4)c3)c(Oc3nccc4ccccc34)c2CC[C@@H]1C [I-257, (S)-1-(6-(1-cyclopropyl-1H-pyrazol-4-yl)-5-(isoquinolin-1-yloxy)-2-methyl-3,4-dihydroquinolin-1(2H)-yl)ethanone]
